Patent publication US9781930B2, “3′-substituted-abscisic acid derivatives” (Valent BioSciences Corporation, priority 2014, dated 2017)

Legend:
Assay type in all cases: in vivo
[1] = system: Arabidopsis thaliana seed; test: Seed germination assay for testing Examples 29-46
Procedure: (§1) Seed Germination Assay for Testing Examples 29-46 To determine the germination inhibition potency of the (±)-ABA derivatives, germination assays were performed with the model plant Arabidopsis thaliana. Arabidopsis seed was sterilized by soaking in 70% ethanol solution for 5 minutes, followed by 5% sodium hypochlorite solution for 10 minutes. The seeds were then washed three times with sterile water. The test compounds were tested in germination assay at five concentrations (0.16, 0.64, 2.5, 10, and 40 μM) with (S)-ABA (0.16, 0.64 and 2.5 μM) as a control in 6-well plates. DMSO stock solutions of (S)-ABA and the derivatives at 1,000 fold of the test concentrations were prepared. The stock solutions (5 μL) of (S)-ABA and the derivatives were added to the wells in the assay plate with 0.8% agar solutions of ½ Murashige and Skoog media. Sixteen sterile seeds were placed on the solid agar medium at an appropriate spacing. The assay plates were sealed with surgical tape and wrapped in aluminum foil, and the seeds were vernalized at 4° C. for 2 days. The assay plates were incubated in a growth chamber at 22.5° C. under daily light cycles of 16 hours (30 μmol/m^2·sec) for 4 days after the vernalization. The germination inhibition potency of the derivatives was scored and compared with that of (S)-ABA. The results are summarized in Table 2 “Table 2: Arabidopsis seed germination inhibition activity of (±)-ABA derivatives.”

[2] = system: Arabidopsis thaliana seed; test: Seed germination assay for testing Examples 29-46; parameters: key: ++++: The 3′-substituted-derivatives were scored by potency relative to ABA.; (S)-ABA potency = +++.; ++: The 3′-substituted-derivatives were scored by potency relative to ABA.; +: The 3′-substituted-derivatives were scored by potency relative to ABA.; −− = no effect; details: 0.16-40 μM in 6-well plates, 4 days after vernalization, compared with (S)-ABA
Procedure: as §1

[3] = system: Arabidopsis thaliana seed; test: Seed germination inhibition assay for testing Examples 1-28 and 47-50; parameters: key to Arabidopsis seed germination inhibition potency: + + + +: The other derivatives were scored by potency relative to S-ABA.; (S)-ABA potency = + + +.; + +: The other derivatives were scored by potency relative to S-ABA.; ++: The other derivatives were scored by potency relative to S-ABA.; +: The other derivatives were scored by potency relative to S-ABA.; −− = no effect; details: 0.01-10.0 ppm in 96-well plates, scored on day 7, relative to (S)-ABA
Procedure: Seed Germination Inhibition Assay for Testing Examples 1-28 and 47-50 To determine the germination inhibition potency of the (S)-ABA derivatives, germination assays were performed with the model plant Arabidopsis thaliana. Arabidopsis seed was sterilized by shaking for five minutes in 200-proof ethanol, and followed by shaking for five minutes in a 10% bleach solution. The seeds were then washed five times in sterile, distilled, de-ionized water and suspended in 0.1% phytoagar. The tubes containing the seeds were wrapped in aluminum foil and stratified at 4° C. for two days. All compounds were tested at eight concentrations of 0 (DMSO control), 0.01, 0.03, 0.1, 0.3, 1.0, 3.0, and 10.0 ppm in 96-well plates. Each plate contained eight replicates of each concentration of the test compound and eight replicates of (S)-ABA at 0.1 ppm as the positive control. As an additional set of controls, each run of the assay also contained one plate dosed with (S)-ABA covering a range of concentrations up to 10 ppm. For each compound, 10× stock solutions corresponding to each of the tested concentrations were prepared in distilled and de-ionized water containing 5% DMSO. The stock test solution (10 μL) was added to each well according to the scheme described above, and 90 μL of ½× Murashige and Skoog media containing 1.2% Bactoagar was then added to each well (final DMSO concentration was 0.5%). When the media solidified, ten to fifteen sterile stratified Arabidopsis seeds were distributed into each well using a repeat pipettor. The plates were sealed with surgical tape and placed in a growth chamber running diurnal cycles of 12 hours of light at 24° C. and 12 hours of darkness at 19° C. The plates were scanned on days 3 through 7, and scored on day 7. The 3′-substituted-(S)-ABA derivatives were scored on ability to inhibit germination relative to the potency of (S)-ABA. The results are summarized below in “Table 1: Arabidopsis seed germination inhibition activity of (S)-ABA derivatives.”

SMILES | germination inhibition activity compared to (S)-ABA (in words) [1] | Arabidopsis seed germination inhibition potency [2] | Arabidopsis seed germination inhibition potency [3]
CC1=C(C2CC2)C(=O)CC(C)(C)C1(O)/C=C/C(C)=C\C(=O)O (racemic) [Example 29, (2Z,4E)-5-(3-cyclopropyl-1-hydroxy-2,6,6-trimethyl-4-oxocyclohex-2-en-1-yl)-3-methylpenta-2,4-dienoic acid] | the same level of potency as (S)-ABA | +++ | 
CCCC1=C(C)C(O)(/C=C/C(C)=C\C(=O)O)C(C)(C)CC1=O (racemic) [Example 30, (2Z,4E)-5-(1-hydroxy-2,6,6-trimethyl-4-oxo-3-propylcyclohex-2-en-1-yl)-3-methylpenta-2,4-dienoic acid] | the same level of potency as (S)-ABA | +++ | 
CC1=C(C(C)C)C(=O)CC(C)(C)C1(O)/C=C/C(C)=C\C(=O)O (racemic) [Example 31, (2Z,4E)-5-(1-hydroxy-3-isopropyl-2,6,6-trimethyl-4-oxocyclohex-2-en-1-yl)-3-methylpenta-2,4-dienoic acid] |  | + | 
CCC1=C(C)C(O)(/C=C/C(C)=C\C(=O)O)C(C)(C)CC1=O (racemic) [Example 32, (2Z,4E)-5-(3-ethyl-1-hydroxy-2,6,6-trimethyl-4-oxocyclohex-2-en-1-yl)-3-methylpenta-2,4-dienoic acid] | the same level of potency as (S)-ABA | +++ | 
CCCCC1=C(C)C(O)(/C=C/C(C)=C\C(=O)O)C(C)(C)CC1=O (racemic) [Example 33, (2Z,4E)-5-(3-butyl-1-hydroxy-2,6,6-trimethyl-4-oxocyclohex-2-en-1-yl)-3-methylpenta-2,4-dienoic acid] |  | + | 
CC1=C(C(F)F)C(=O)CC(C)(C)C1(O)/C=C/C(C)=C\C(=O)O (racemic) [Example 38, (2Z,4E)-5-(3-(difluoromethyl)-1-hydroxy-2,6,6-trimethyl-4-oxocyclohex-2-en-1-yl)-3-methylpenta-2,4-dienoic acid] | the same level of potency as (S)-ABA | +++ | 
CC1=C(C(C)(F)F)C(=O)CC(C)(C)C1(O)/C=C/C(C)=C\C(=O)O (racemic) [Example 39, (2Z,4E)-5-(3-(1,1-difluoroethyl)-1-hydroxy-2,6,6-trimethyl-4-oxocyclohex-2-en-1-yl)-3-methylpenta-2,4-dienoic acid] | more active than (S)-ABA | ++++ | 
CC1=C(C(C)F)C(=O)CC(C)(C)C1(O)/C=C/C(C)=C\C(=O)O (racemic) [Example 40, (2Z,4E)-5-(3-(1-fluoroethyl)-1-hydroxy-2,6,6-trimethyl-4-oxocyclohex-2-en-1-yl)-3-methylpenta-2,4-dienoic acid] | more active than (S)-ABA | ++++ | 
CC1=C(C2CCC2)C(=O)CC(C)(C)C1(O)/C=C/C(C)=C\C(=O)O (racemic) [Example 41, (2Z,4E)-5-(3-cyclobutyl-1-hydroxy-2,6,6-trimethyl-4-oxocyclohex-2-en-1-yl)-3-methylpenta-2,4-dienoic acid] |  | ++ | 
CC1=C(CC(F)(F)F)C(=O)CC(C)(C)C1(O)/C=C/C(C)=C\C(=O)O (racemic) [Example 44, (2Z,4E)-5-(1-hydroxy-2,6,6-trimethyl-4-oxo-3-(2,2,2-trifluoroethyl)cyclohex-2-en-1-yl)-3-methylpenta-2,4-dienoic acid] |  | ++ | 
CC1=CC(=O)CC(C)(C)[C@@]1(O)/C=C/C(C)=C/C(=O)O [(S)-ABA, (S)-abscisic acid, reference compound] |  | +++ | + + +
CC1=C(Cc2cc(F)cc(F)c2)C(=O)CC(C)(C)[C@@]1(O)/C=C/C(C)=C\C(=O)O [Example 23, (2Z,4E)-5-((S)-3-(3,5-difluorobenzyl)-1-hydroxy-2,6,6-trimethyl-4-oxocyclohex-2-en-1-yl)-3-methylpenta-2,4-dienoic acid] |  |  | −−
CC1=C(Cc2ccccc2Cl)C(=O)CC(C)(C)[C@@]1(O)/C=C/C(C)=C\C(=O)O [Example 24, (2Z,4E)-5-((S)-3-(2-chlorobenzyl)-1-hydroxy-2,6,6-trimethyl-4-oxocyclohex-2-en-1-yl)-3-methylpenta-2,4-dienoic acid] |  |  | −−
CC1=C(Cc2ccc(Cl)cc2)C(=O)CC(C)(C)[C@@]1(O)/C=C/C(C)=C\C(=O)O [Example 25, (2Z,4E)-5-((S)-3-(4-chlorobenzyl)-1-hydroxy-2,6,6-trimethyl-4-oxocyclohex-2-en-1-yl)-3-methylpenta-2,4-dienoic acid] |  |  | −−
COc1cccc(CC2=C(C)[C@](O)(/C=C/C(C)=C\C(=O)O)C(C)(C)CC2=O)c1 [Example 26, (2Z,4E)-5-((S)-3-(3-methoxybenzyl)-1-hydroxy-2,6,6-trimethyl-4-oxocyclohex-2-en-1-yl)-3-methylpenta-2,4-dienoic acid] |  |  | −−
COc1cc([N+](=O)[O-])ccc1CC1=C(C)[C@](O)(/C=C/C(C)=C\C(=O)O)C(C)(C)CC1=O [Example 27, (2Z,4E)-5-((S)-1-hydroxy-3-(2-methoxy-4-nitrobenzyl)-2,6,6-trimethyl-4-oxocyclohex-2-en-1-yl)-3-methylpenta-2,4-dienoic acid] |  |  | −−
CC1=C(Cc2nc3ccccc3s2)C(=O)CC(C)(C)[C@@]1(O)/C=C/C(C)=C\C(=O)O [Example 28, (2Z,4E)-5-((S)-3-(benzo[d]thiazol-2-ylmethyl)-1-hydroxy-2,6,6-trimethyl-4-oxocyclohex-2-en-1-yl)-3-methylpenta-2,4-dienoic acid] |  |  | −−
CC#CCC1=C(C)[C@](O)(/C=C/C(C)=C\C(=O)O)C(C)(C)CC1=O [Example 47, (2Z,4E)-5-((S)-3-(but-2-yn-1-yl)-1-hydroxy-2,6,6-trimethyl-4-oxocyclohex-2-en-1-yl)-3-methylpenta-2,4-dienoic acid] |  |  | ++
CCC#CCC1=C(C)[C@](O)(/C=C/C(C)=C\C(=O)O)C(C)(C)CC1=O [Example 48, (2Z,4E)-5-((S)-1-hydroxy-2,6,6-trimethyl-4-oxo-3-(pent-2-yn-1-yl)cyclohex-2-en-1-yl)-3-methylpenta-2,4-dienoic acid] |  |  | +
CC1=C(C/C=C/C(=O)O)C(=O)CC(C)(C)[C@@]1(O)/C=C/C(C)=C\C(=O)O [Example 49, (2Z,4E)-5-((S)-3-((E)-3-carboxyallyl)-1-hydroxy-2,6,6-trimethyl-4-oxocyclohex-2-en-1-yl)-3-methylpenta-2,4-dienoic acid] |  |  | −−
CC1=C(C/C=C/c2ccccc2)C(=O)CC(C)(C)[C@@]1(O)/C=C/C(C)=C\C(=O)O [Example 50, (2Z,4E)-5-((S)-3-cinnamyl-1-hydroxy-2,6,6-trimethyl-4-oxocyclohex-2-en-1-yl)-3-methylpenta-2,4-dienoic acid] |  |  | +
